According to patent US20230382909A1, “BICYCLIC COMPOUNDS” (Aligos Therapeutics, Inc., priority 2022, published 2023):

What was measured:
[1] = Cell viability by CellTiter-Glo 2.0 (intracellular ATP content) in HepG2.117 cells; format: cell-based; conditions: human, CellTiter-Glo 2.0, 3 days incubation
Protocol: (§1) The following assay procedure describes the HBV antiviral assay, using HepG2.117 cells, which carry a stably integrated genotype D HBV genome under the control of a Tet-off promoter, and intracellular HBV DNA quantification as endpoint. Cell viability is assessed in parallel by measuring the intracellular ATP content using CellTiter-Glo 2.0 (Promega).
(§2) On day 1, medium is removed from each well, the test articles are diluted in culture medium without doxcycyline and 100 μL was added to cell culture wells (9 concentrations, 4-fold dilution). For each plate, 6 untreated (merely DMSO) wells are included. The final concentration of DMSO in the culture medium is 2%. Each plate is prepared in duplicate (one for HBV DNA extraction, one for CellTiter-Glo 2.0 measurement). The cells are incubated at 37° C. and 5% CO2 for 3 days.
(§3) On day 4, cell viability is assessed using CellTiter-Glo 2.0 and cell lysates are prepared for HBV DNA extraction and subsequent quantification by qPCR.
Using the other plates, the cell viability is quantified by CellTiter-Glo 2.0 according to the manufacturer's manual. In brief, 100 μL of reagent solution is added to the culture plates and shaken for 2′. The plates are incubated at rt for 10 min and luminescence signal is subsequently measured on a VarioSkan Lux (ThermoFisher) plate reader.
(§4) Cell viability is calculated as follows: % Cell viability=(luminescence value of test sample)/(average luminescence value of 2% DMSO control)×100%. HBV DNA inhibition was calculated as follows: 100−(HBV DNA copy number of test sample)/(average HBV DNA copy number of 2% DMSO control)×100%. No normalization to entecavir is required due to the excellent dynamic window of this assay. The CC50, EC50 and EC9o values were determined by dose-response curves fitted using non-linear regression.

HBV = assay: HBV-DNA antiviral assay using HepG2.117 cells; format: cell-based, HBV genotype D; conditions: Hepatitis B virus, HepG2.117, 72 h
Protocol: as §1
On day 0, HepG2.117 cells (which are maintained in routine cell culture with doxycycline present in the medium at a final concentration of 1 μg/mL) are seeded in 96-well plates (white with clear bottom) at a density of 2.0×10^4 cells/well (0.1 mL/well) in medium without doxycycline to induce pgRNA transcription and subsequent formation of HBV particles. The cells are incubated at 37° C. and 5% CO2.
as §2, §3
HBV DNA Quantification by qPCR
Medium is removed from each well and 100 μL of 0.33% NP-40 in H2O was added to each well. Plates are sealed, incubated at 4° C. for 5 mins, vortexed extensively and centrifuged briefly. Next, 35 μL of lysate is added to 65 μL QuickExtract DNA Extraction Solution (Epicentre) in a PCR plate for each well. PCR plate is incubated at 65° C. for 6 mins, 98° C. for 2 mins and finally cooled to 4° C. HBV DNA is then quantified by qPCR with HBV-specific primers and probes as specified in Table 3 using the Bio-Rad SSOAdvanced Universal Probes Supermix on a CFX96 machine (Bio-Rad). The PCR cycle program consisted of 95° C. for 3 mins, followed by 40 cycles at 95° C. for 10 sec and 60° C. for 30 sec.
A DNA standard is prepared by dilution of an IDT gBlock corresponding to the amplicon with concentrations ranging from 10^2 to 10^8 copies/input (i.e., per 4 μL) and used to generate a standard curve by plotting Cq values vs. HBV DNA standard concentration. The quantity of HBV DNA in each sample is determined by interpolating from the standard curve.
as §4

Structure (SMILES) | CC50 at 3 days [1] [nM] | EC50 (HBV) [nM]
Cc1cc(C)n(-c2nc3c(c(=O)n2-c2ccc(N4CC[C@H](O)C4)nc2)C[C@@H](C)N(C(=O)c2ccc(Br)c(C(F)(F)F)c2)C3)n1 [Compound 33, (6R)-7-[4-bromo-3-(trifluoromethyl)benzoyl]-2-(3,5-dimethylpyrazol-1-yl)-3-[6-[(3S)-3-hydroxypyrrolidin-1-yl]-3-pyridyl]-6-methyl-6,8-dihydro-5H-pyrido[3,4-d]pyrimidin-4-one] | > 500 | < 50
Cc1cc(C)n(-c2nc3c(c(=O)n2-c2ccc(N4CCN(C(C)C)CC4)nc2)C[C@@H](C)N(C(=O)c2ccc(Br)c(C(F)(F)F)c2)C3)n1 [Compound 34, (6R)-7-[4-bromo-3-(trifluoromethyl)benzoyl]-2-(3,5-dimethylpyrazol-1-yl)-3-[6-(4-isopropylpiperazin-1-yl)-3-pyridyl]-6-methyl-6,8-dihydro-5H-pyrido[3,4-d]pyrimidin-4-one] | > 500 | < 50
Cc1cc(C)n(-c2nc3c(c(=O)n2-c2ccc(N[C@H]4C[C@@H](O)C4)nc2)C[C@@H](C)N(C(=O)c2ccc(Br)c(C(F)(F)F)c2)C3)n1 [Compound 35, (R)-7-(4-bromo-3-(trifluoromethyl)benzoyl]-2-(3,5-dimethyl-1H-pyrazol-1-yl)-3-(6-(((1s,3S)-3-hydroxycyclobutyl)amino)pyridin-3-yl)-6-methyl-5,6,7,8-tetrahydropyrido[3,4-d]pyrimidin-4(3H)-one] | > 500 | < 50
Cc1cc(C)n(-c2nc3c(c(=O)n2-c2ccc(N[C@H]4C[C@H](O)C4)nc2)C[C@@H](C)N(C(=O)c2ccc(Br)c(C(F)(F)F)c2)C3)n1 [Compound 36, (R)-7-(4-bromo-3-(trifluoromethyl)benzoyl)-2-(3,5-dimethyl-1H-pyrazol-1-yl)-3-(6-(((1r,3R)-3-hydroxycyclobutyl)amino)pyridin-3-yl)-6-methyl-5,6,7,8-tetrahydropyrido[3,4-d]pyrimidin-4(3H)-one] | > 500 | < 50
Cc1cc(C)n(-c2nc3c(c(=O)n2-c2ccc(O[C@H]4C[C@@H](O)C4)cc2)C[C@@H](C)N(C(=O)c2ccc(Br)c(C(F)(F)F)c2)C3)n1 [Compound 37, (R)-7-(4-bromo-3-(trifluoromethyl)benzoyl)-2-(3,5-dimethyl-1H-pyrazol-1-yl)-3-(4-((1s,3S)-3-hydroxycyclobutoxy)phenyl)-6-methyl-5,6,7,8-tetrahydropyrido[3,4-d]pyrimidin-4(3H)-one] | > 500 | < 50
Cc1cc(C)n(-c2nc3c(c(=O)n2-c2ccc(O[C@H]4C[C@H](O)C4)cc2)C[C@@H](C)N(C(=O)c2ccc(Br)c(C(F)(F)F)c2)C3)n1 [Compound 38, (R)-7-(4-bromo-3-(trifluoromethyl)benzoyl)-2-(3,5-dimethyl-1H-pyrazol-1-yl)-3-(4-((1r,3R)-3-hydroxycyclobutoxy)phenyl)-6-methyl-5,6,7,8-tetrahydropyrido[3,4-d]pyrimidin-4(3H)-one] | > 500 | < 50
Cc1cc(C)n(-c2nc3c(c(=O)n2-c2ccc(O[C@H]4C[C@@H](O)C4)nc2)C[C@@H](C)N(C(=O)c2ccc(Br)c(C(F)(F)F)c2)C3)n1 [Compound 39, (R)-7-(4-bromo-3-(trifluoromethyl)benzoyl)-2-(3,5-dimethyl-1H-pyrazol-1-yl)-3-(6-((1s,3S)-3-hydroxycyclobutoxy)pyridin-3-yl)-6-methyl-5,6,7,8-tetrahydropyrido[3,4-d]pyrimidin-4(3H)-one] | > 500 | < 50
Cc1cc(C)n(-c2nc3c(c(=O)n2-c2ccc(O[C@H]4C[C@H](O)C4)nc2)C[C@@H](C)N(C(=O)c2ccc(Br)c(C(F)(F)F)c2)C3)n1 [Compound 40, (R)-7-(4-bromo-3-(trifluoromethyl)benzoyl)-2-(3,5-dimethyl-1H-pyrazol-1-yl)-3-(6-((1r,3R)-3-hydroxycyclobutoxy)pyridin-3-yl)-6-methyl-5,6,7,8-tetrahydropyrido[3,4-d]pyrimidin-4(3H)-one] | > 500 | < 50
Cc1cc(C)n(-c2nc3c(c(=O)n2-c2ncc(N)cn2)C[C@@H](C)N(C(=O)c2ccc(Br)c(C(F)(F)F)c2)C3)n1 [Compound 41, (R)-3-(5-aminopyrimidin-2-yl)-7-(4-bromo-3-(trifluoromethyl)benzoyl)-2-(3,5-dimethyl-1H-pyrazol-1-yl)-6-methyl-5,6,7,8-tetrahydropyrido[3,4-d]pyrimidin-4(3H)-one] | > 500 | < 50
CNc1cnc(-n2c(-n3nc(C)cc3C)nc3c(c2=O)C[C@@H](C)N(C(=O)c2ccc(Br)c(C(F)(F)F)c2)C3)nc1 [Compound 42, (R)-7-(4-bromo-3-(trifluoromethyl)benzoyl)-2-(3,5-dimethyl-1H-pyrazol-1-yl)-6-methyl-3-(5-(methylamino)pyrimidin-2-yl)-5,6,7,8-tetrahydropyrido[3,4-d]pyrimidin-4(3H)-one] | > 500 | < 50
